Data published in patent publication US8273337B2, “Hair binding peptides and peptide-based hair reagents for personal care” (Affinergy Inc., priority 2007, dated 2012).

Columns and labels:
90% gray hair [1] = test: ELISA hair-binding activity of biotinylated peptides on hair bundles; parameters: species or system human; conditions: 20 μM biotinylated peptide in TBST and 1 mg/mL BSA, 1 hour at room temperature, 90% gray hair bundles, streptavidin-HRP detection; mean of at least three replicates
Description: Enzyme-linked immunosorbent assay (ELISA) was used to evaluate the hair-binding affinity of the biopanning selected peptide candidates (Example 1; biotinylated peptides SEQ ID NOs: 25, 27, 29, 30, and 32). The identified peptides along with a positive control peptide Gray3 (given as SEQ ID NO: 34; previously reported in co-pending U.S. patent application Ser. No. 11/251,715 corresponding to U.S. Patent Application Publication No. 2006/0073111) were synthesized using standard solid […] synthesis method (U.S. Ser. No. 11/251/715).
The resulting absorbance values, reported as the mean of at least three replicates, and the standard error of the mean (SEM) are given in Table 3.

90% gray hair [2] = conditions: substrate 90% gray hair; peptide concentration giving 50% of the maximum ELISA signal; calculated from Scatchard plots
Protocol: (§1) The MB50 provides an indication of the strength of the binding interaction or affinity of the components of the complex.
as §1
The hair samples were assembled in bundles consisting of 100 hairs about 1 cm long which were bundled together using narrow tape at one end. […] Peptide binding buffer consisting of various concentrations of biotinylated peptide in TBST and 1 mg/mL BSA was added to the hair bundles and incubated for 1 hour at room temperature, followed by 6 TBST washes. […] The results were plotted as A450 versus the concentration of peptide using GraphPad Prism 4.0 (GraphPad Software, Inc., San Diego, Calif.).

Substance	Hair A405 nm (90% gray hair [1])	MB50 (90% gray hair [2])
EGASVASASDSVDSSYYSR-GSSGK (biotin) [Aff15017]	0.184	–
Gray3: positive control hair-binding peptide previously reported in U.S. Patent Application Publication No. 2006/0073111 (HDHKNQKETHQRHAA; Hair-binding peptide) [reference compound]	0.448	–
SRKSSQKNPHHPKPPKKPTAR-GSSGK (biotin) [Aff15014]	0.871	33 nM
SSEGASVASASDSVDSSYYSRKSSQKNPHHPKPPKKPTAR-GSSGK (biotin) [Aff15023]	0.66	–
SSNDSNVSWFHYYASGLTSSR-GSSG-SRKSSQKNPHHPKPPKKPTAR-GSSGK (biotin) [Aff15025]	0.86	–
VRPNLHRKAKAKPDHKQSENRKVPFYSH-GSSGK (biotin) [Aff15012]	0.873	24 nM
